Experimental data from patent US20260224602A1, “METHODS AND PHARMACEUTICAL COMPOSITIONS FOR TREATING DEMENTIA” (Neurxstem, priority 2023, published 2026).
Where a name gives a salt, the structure may show the parent alone. Read-outs that look alike come from different tables or passages of the source.

Columns and labels:
[1] = system: AD-NNOP-SPOR neural organoids; experiment: CGS-21680 effect on gene expression in AD-NNOP-SPOR neural organoids (Ampliseq transcriptomics); format: cell-based, human
Description: (§1) Neural Organoids derived from induced pluripotent stem cells derived from adult skin cells of AD, ADRD or MED patients were grown in vitro for 4 weeks as previous described in U.S. Pat. No. 11,435,890, incorporated by reference in its entirety herein. Transcriptomic data from these neural organoids were obtained. Differences in expression of 20,814 genes expressed in the human genome were determined between these neural organoids and those from neural organoids from a normal individual human (an individual not having/diagnosed with AD, ADRD, or MED). Detailed data analysis using Gene Card and Pubmed data bases were performed.
(§2) Human induced pluripotent stem cell-derived neural organoids were generated according to the following protocol, as set forth in U.S. Pat. No. 11,435,890, incorporated by reference in its entirety herein. Briefly, irradiated murine embryonic fibroblasts (MEF) were plated on a gelatin coated substrate in MEF media (Dulbecco's Modified Eagle Medium (DMEM) supplemented with 10% Fetal Bovine Serum, 100 units/ml penicillin, 100 microgram/ml streptomycin, and 0.25 microgram/ml Fungizone) at a density of 2×10^5 cells per well. The seeded plate was incubated at 37° C. overnight.
In Table 1, the effect of A2A receptor agonist to reverse the aberrant expression of the biomarkers in AD disease was assessed. […] Log2 fold change with a positive value indicates a […] in expression of an AD-NNOP gene when compared to Normal-NNOP and a negative number indicates an increase in gene expression.

[2] = cited from earlier work
[3] = system: AD-NNOP-APP neural organoids; experiment: PF-3845 effect on gene expression in AD-NNOP-APP neural organoids (Ampliseq transcriptomics); format: cell-based, human
Description: as §1, with “performed. […] These genes comprise a suite of biomarkers for Alzheimer's disease.” for “performed.”
as §2
It is known that FAAH inhibitor PF-3845 will raise endogenous levels of endocannabinoid anandamide receptor agonist anandamide. Consequently, PF-3845 treatment can increase endocannabinoid anandamide receptor activity despite dementia-associated downregulation. […] AD-NNOP-APP neural organoids were incubated with vehicle (0.1% DMSO; control) or PF-3845 dissolved in DMSO at 10 µM for 4 days and harvested for RNA extraction and gene expression analysis by Ampliseq™ (Thermofisher). Log2 fold change with a positive value indicates a […] in expression of an AD-NNOP gene when compared to Normal-NNOP and with a negative number an increase in gene expression. […] The expression of these genes were known to be increased in AD-NNOP-APP compared to normal (data not shown). Thus, PF-3845 or FAAH inhibitor was effective in reverting the biomarkers of AD to normalcy.

[4] = system: adenosine A2A receptor; conditions: Zochi et al., 1996, cited from earlier work
[5] = AD-NNOP-SPOR, CGS-21680 1 μM 4 days vs vehicle
[6] = AD-NNOP-APP >12 weeks in culture, PF-3845 10 µM 4 days vs vehicle (0.1% DMSO), positive = decrease in expression

## CCNC(=O)[C@H]1O[C@@H](n2cnc3c(N)nc(NCCc4ccc(CCC(=O)O)cc4)nc32)[C@H](O)[C@@H]1O [CGS-21680, 2-p-(2-Carboxyethyl) phenethylamino-5′-N-ethylcarboxamidoadenosine hydrochloride hydrate]
[1]; AD-NNOP SPOR, compared to control treatment
  effect on TBX3 expression: decreased TBX3 expression
[1]; [5]
  effect on expression of abnormal AD genes: invert the expression of the abnormal genes in AD and revert them back to normalcy
  number of differentially expressed genes vs control group: 2023 genes
[2]; 45% (w/v) aq 2-hydroxypropyl-β-cyclodextrin
  solubility in 45% (w/v) aq 2-hydroxypropyl-β-cyclodextrin: ≤ 20 mg/mL
[2]
  solubility in DMSO: up to 3.4 mg/mL

## O=C(Nc1cccnc1)N1CCC(Cc2cccc(Oc3ccc(C(F)(F)F)cn3)c2)CC1 [PF-3845]
[3]; AD-NNOP APP, PF-3845 compared to control treatment
  effect on expression of measured AD biomarker genes: expression of the measured genes were decreased
[3]; [6]
  ADM log2 Fold Change: 2.14
  BGN log2 Fold Change: 2.50
  CD36 log2 Fold Change: 2.86
  MAP3K19 log2 Fold Change: 2.56
  SLC16A3 log2 Fold Change: 2.05
[3]; AD-NNOP-APP, PF-3845 10 µM 4 days vs vehicle
  number of differentially expressed genes vs control group: 2111 genes

## CCNC(=O)[C@H]1O[C@@H](n2cnc3c(N)nc(C#CC[C@H]4CC[C@H](C(=O)OC)CC4)nc32)[C@H](O)[C@@H]1O [apadenoson, methyl (1R,4r)-4-(3-(6-amino-9-((2R,3R,4S,5S)-5-(ethylcarbamoyl)-3,4-dihydroxytetrahydrofuran-2-yl)-9H-purin-2-yl)prop-2-yn-1-yl)cyclohexane-1-carboxylate]
[2]; MedKoo Biosciences
  solubility in DMSO: Soluble in DMSO
